Measured values taken from US20090061000A1, “PHARMACEUTICAL FORMULATION USE 030” (AstraZeneca AB, priority 2007, published 2009).

Key:
CYP2C9 = biological target: T1, CYP2C9 (Homo sapiens, UniProt P11712); assay: Cocktail drug-drug interaction study: tolbutamide pharmacokinetics as probe of CYP2C9 activity; type: in vivo; conditions: co-administration of 500 mg Compound A with tolbutamide 500 mg
T1 construct: from tissue
Excerpt: 24 healthy male subjects aged between 20 and 43 years received the following dosing regimens in random order: • 1.
The three treatments were separated by a wash-out period of 7 to 21 days.

thrombin = thrombin (Homo sapiens, UniProt P00734); conditions: free amidine metabolite of Compound A; cited from earlier work

T1 sequence (P11712 whole entry): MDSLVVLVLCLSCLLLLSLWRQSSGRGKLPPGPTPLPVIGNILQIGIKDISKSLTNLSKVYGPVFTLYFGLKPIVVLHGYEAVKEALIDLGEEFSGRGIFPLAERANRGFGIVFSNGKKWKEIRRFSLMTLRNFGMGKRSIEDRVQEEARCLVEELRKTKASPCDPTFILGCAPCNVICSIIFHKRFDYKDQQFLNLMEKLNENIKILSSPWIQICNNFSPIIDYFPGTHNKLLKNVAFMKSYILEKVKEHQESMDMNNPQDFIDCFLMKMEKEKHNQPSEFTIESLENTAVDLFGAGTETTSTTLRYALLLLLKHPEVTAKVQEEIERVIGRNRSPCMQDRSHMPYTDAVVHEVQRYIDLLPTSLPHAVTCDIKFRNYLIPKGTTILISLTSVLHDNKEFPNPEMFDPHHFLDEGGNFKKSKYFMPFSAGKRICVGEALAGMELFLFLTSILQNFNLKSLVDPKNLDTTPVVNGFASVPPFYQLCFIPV

effect on CYP2C9 activity (influence on the pharmacokinetics of tolbutamide) (CYP2C9) | SMILES | inhibition of thrombin (thrombin)
no effect | CO/N=C(\N)c1ccc(CNC(=O)[C@@H]2CCN2C(=O)[C@H](O)c2cc(Cl)cc(OC(F)F)c2)cc1 [Compound A, Ph(3-Cl)(5-OCHF2)—(R)CH(OH)C(O)—(S)Aze-Pab(OMe)] | –
– | N=C(N)c1ccc(CNC(=O)[C@@H]2CCN2C(=O)[C@H](O)c2cc(Cl)cc(OC(F)F)c2)cc1 [Compound C, Ph(3-Cl)(5-OCHF2)—(R)CH(OH)C(O)—(S)Aze-Pab] | has been found to inhibit thrombin
